Source: publication PMC9127750, “Structure-based design of CDC42 effector interaction inhibitors for the treatment of cancer” (Cell reports, 2022)
Where “and” joins values, the source holds several entries; their conditions need not be identical. Identical values can stand only once.

Tested on: WM3248 melanoma cells, 486 antibodies
Assay: Reverse phase protein arrays (RPPA)
Format: cell-based, Human
Conditions: 20 uM, single replicates
Source text: Pellets were snap frozen in liquid nitrogen and shipped to MD Anderson Cancer Center core RPPA facility for RPPA analysis (Table S5). Three biological replicates for each sample were generated.
Nomenclatures on the RPPA heatmaps: name_of_antibody.species_of_antibody.status_of_antibody. V - antibody validated; C - validation of antibody in progress; Q - antibody nonspecific; E – under evaluation; antibodies raised in M - mouse, G - goat, R - rabbit, or T - rat.

## CN(C)c1cccc(Nc2cc(-c3ccccc3)nc(C3CCNCC3)n2)c1 [ARN22089, N1,N1-dimethyl-N3-(6-phenyl-2-(piperidin-4-yl)pyrimidin-4-yl)benzene-1,3-diamine]
  RPPA level HSP60.R.V: 1.015 and 0.888 and 1.096
  RPPA level HSP70.R.C: 1.026 and 1.351 and 1.104
  RPPA level Hexokinase.I.R.C: 0.978 and 0.986
  RPPA level Hexokinase.II.R.V: 1.256 and 0.762 and 0.871
  RPPA level Hif.1αR.C: 0.972 and 1.096 and 0.645
  RPPA level Histone.H3.R.V: 1.540 and 13.252 and 0.726
  RPPA level Histone.H3_pS10.R.V: 1.398 and 3.688 and 0.992
  RPPA level IDO.R.C: 0.839 and 1.159
  RPPA level IGF1R_pY1135_Y1136.R.V: 0.898 and 1.026 and 1.052
  RPPA level IGFBP2.R.V: 0.627 and 0.801 and 1.270
  RPPA level IGFBP3.M.V: 0.715 and 1.003 and 1.004
  RPPA level IGFRb.R.C: 1.190
  RPPA level IL.6.R.C: 0.855 and 1.111 and 1.060
  RPPA level IMP3.R.C: 1.052 and 1.022 and 0.974
  RPPA level INPP4b.R.C: 1.077 and 0.833 and 0.806
  RPPA level IR.b.R.C: 0.907 and 1.208 and 1.333
  RPPA level IRF.1.R.V: 0.730 and 0.964 and 1.168
  RPPA level IRF.3.R.V: 0.995 and 0.906 and 0.945
  RPPA level IRS1.R.V: 1.014 and 1.159 and 1.141
  RPPA level IRS2.R.C: 1.278 and 1.343 and 1.011
  RPPA level JAB1.M.C: 0.955 and 0.936 and 1.024
  RPPA level JNK2.R.V: 0.819 and 0.805 and 1.152
  RPPA level JNK_pT183_Y185.R.C: 0.945 and 1.049 and 1.120
  RPPA level Jagged1.R.V: 0.981 and 1.189
  RPPA level Jak2.R.V: 1.014 and 1.017
  RPPA level KAP1.R.V: 1.154 and 0.878
  RPPA level KEAP1.R.V: 1.208 and 0.814 and 0.859
  RPPA level LAD1.R.V: 0.839 and 1.022 and 1.196
  RPPA level LC3A.B.R.C: 1.392 and 1.015
  RPPA level LCN2.R.V: 2.637 and 0.737 and 1.009
  RPPA level LDHA.R.C: 0.867 and 0.798 and 1.272
  RPPA level LRP6_pS1490.R.V: 0.973
  RPPA level Lasu1.R.V: 1.275 and 1.065 and 0.935
  RPPA level Lck.R.V: 1.245 and 1.124 and 1.192
  RPPA level Lyn.R.V: 1.188 and 0.948
  RPPA level MACC1.R.V: 1.006 and 1.026 and 0.991
  RPPA level MAPK_pT202_Y204.R.C: 0.788 and 0.541 and 0.701
  RPPA level MCT4.R.V: 0.646 and 0.854 and 1.188
  RPPA level MDM2_pS166.R.V: 1.371 and 1.241 and 1.078
  RPPA level MEK1.R.V: 0.858 and 3.823 and 2.342
  RPPA level MEK1_pS217_S221.R.V: 0.758 and 1.168 and 1.336
  RPPA level MEK2.R.V: 1.000 and 1.139
  RPPA level MERIT40.R.C: 0.830 and 0.763
  RPPA level MERIT40_pS29.R.V: 0.843 and 1.161
  RPPA level METTL3.R.V: 1.391 and 1.001
  RPPA level MIF.R.C: 1.003 and 0.889 and 0.956
  RPPA level MIG6.R.V: 0.962 and 1.022 and 0.982
  RPPA level MITF.R.V: 1.062 and 1.054 and 0.977
  RPPA level MLH1.M.V: 0.822 and 0.867 and 0.972
  RPPA level MLKL.R.V: 0.744 and 0.811 and 1.046
  RPPA level MMP2.R.V: 1.019 and 0.966 and 0.959
  RPPA level MMP14.R.V: 1.320 and 1.294 and 1.349
  RPPA level MR1.M.C: 0.957 and 1.152 and 0.970
  RPPA level MRAP.R.C: 0.958 and 1.263 and 1.157
  RPPA level MSH2.R.C: 0.876 and 0.877 and 0.987
  RPPA level MSH6.R.C: 1.224 and 1.204 and 1.063
  RPPA level MSI2.R.C: 1.222 and 1.004
  RPPA level MTCO1.M.V: 1.417 and 0.726
  RPPA level MTSS1.M.C: 0.974 and 1.002 and 0.966
  RPPA level Mcl.1.R.V: 0.716 and 0.788 and 1.009
  RPPA level MelanA.R.C: 1.005
  RPPA level Melanoma.gp100.R.C: 0.910 and 0.978 and 1.134
  RPPA level Merlin.R.C: 1.134 and 1.227 and 1.109
  RPPA level Midkine.R.V: 0.990 and 0.926 and 0.994
  RPPA level Mitofusin.1.R.V: 0.874 and 0.829 and 1.152
  RPPA level Mitofusin.2.R.V: 0.751 and 0.836
  RPPA level Mnk1.R.V: 0.933 and 0.905 and 1.031
  RPPA level mTOR.R.V: 0.956 and 0.920
  RPPA level mTOR_pS2448.R.C: 0.845 and 0.920 and 0.976
  RPPA p21.R.C: 1.050 and 0.570 and 0.863
  RPPA p27.Kip1.R.C: 1.342 and 1.132 and 0.997
  RPPA p27_pT157.R.C: 1.309 and 1.207 and 1.127
  RPPA p27_pT198.R.V: 1.003 and 1.297 and 1.169
  RPPA p38.MAPK.R.V: 0.937 and 0.864 and 1.143
  RPPA p38.MAPK._pT180_Y182.R.V: 0.828 and 1.168 and 1.281
  RPPA p38.a.M.V: 0.862 and 0.943
  RPPA p44.42.MAPK.R.V: 1.247 and 0.862 and 0.981
  RPPA p53.R.C: 0.928 and 1.483 and 1.058
  RPPA p70.S6K1.R.V: 1.060 and 0.948
  RPPA p70.S6K_pT389.R.V: 0.797 and 1.020 and 1.171
  RPPA p90RSK_pT573.R.C: 1.285 and 0.748 and 1.009
